Reference: patent US20240417398A1, “TETRAHYDRONAPTHYRIDINE AND RELATED ANALOGS FOR INHIBITING YAP/TAZ-TEAD” (SpringWorks Therapeutics, Inc., priority 2023, published 2024)

Assays:
Assay type in all cases: cell-based
NCI-H226 = assay: Mesothelioma cell line proliferation assay (ATPlite), NCI-H226; conditions: Homo sapiens, 144 h; NCI-H226 cells, 6 days with compound, ATPlite cell viability
Protocol: (§1) Mesothelioma cell lines, NCI-H226 and NCI-H2052 (both sourced from the ATCC cell culture collection) were plated in 96-well plates (Corning® 96 Well White Polystyrene Microplate clear flat bottom, white polystyrene (TC-Treated)), at 1500 cells/well in full medium (RPMI 1640 ATCC modification with L-glutamine, HEPES, Phenol Red, Sodium Pyruvate, High glucose, Low sodium bicarbonate and 10% fetal bovine serum). Cells were incubated overnight at 37° C. in an incubator with 5% CO2. Then compounds, dissolved in DMSO, were added in dose-response. Cells were incubated with compound dilutions for another 6 days at 37° C. in an incubator with 5% CO2. Cell viability was quantitated using the ATPlite kit (Perkin-Elmer) and the luminescence was read-out using an Envision instrument (Perkin-Elmer). The amount of relative light units produced using the ATPlite kit was used to calculate percent of inhibition.
(§2) The activities of some example compounds are depicted in Table 4. The activity ranges A, B and C refer to EC50 values in the mesothelioma cell line proliferation assay as described as follows: “A”: EC50<1 μM; “B”: 1 μM≤EC50<10 μM and “C”: EC50>10 μM; NT: not tested.

[1] = system: YAP/TAZ-TEAD transcription; assay: Reporter gene assay for measuring the inhibition of YAP/TAZ-TEAD transcription (TEAD-responsive element luciferase reporter, Hek293T cells); conditions: Hek293T cells transfected with TEAD-responsive element luciferase reporter, 24 hours incubation
Method in brief: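 HEK293T cells transiently transfected with a TEAD-responsive luciferase reporter are plated on compounds and incubated 24 h at 37 °C/5% CO2, then read with SteadyLite luminescence. Percent inhibition is normalised to vehicle (0%) and a positive-control inhibitor (100%); IC50 is derived from these values.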

NCI-H2052 = assay: Mesothelioma cell line proliferation assay (ATPlite), NCI-H2052; conditions: Homo sapiens, 144 h; NCI-H2052 cells, 6 days with compound, ATPlite cell viability
Protocol: as §1, §2

EC50 (NCI-H226) [nM]	IC50 [1] [nM]	EC50 (NCI-H2052) [nM]	IC50 ([1]; Homo sapiens, HEK-293T, 24 h) [nM]	Structure (SMILES)
< 1000	< 1000	< 1000		CCC(=O)NCC1Cc2ncccc2N(c2ccc(C(F)(F)F)cc2)C1 (single isomer, unassigned) [Cpd. No. 17-En2, (R)- or (S)-N-((1-(4-(trifluoromethyl)phenyl)-1,2,3,4-tetrahydro-1,5-naphthyridin-3-yl)methyl)propionamide]
< 1000	< 1000	< 1000		COc1ccc2c(n1)CC(CNC(C)=O)CN2c1ccc(C(F)(F)F)cc1 (single isomer, unassigned) [Cpd. No. 22-En2, (R)- or (S)-N-((6-methoxy-1-(4-(trifluoromethyl)phenyl)-1,2,3,4-tetrahydro-1,5-naphthyridin-3-yl)methyl)acetamide]
< 1000	< 1000	< 1000		CC(=O)NCC1Cc2nc(C)ccc2N(c2ccc(C(F)(F)F)cc2)C1 (single isomer, unassigned) [Cpd. No. 26-En2, (R)- or (S)-N-((6-methyl-1-(4-(trifluoromethyl)phenyl)-1,2,3,4-tetrahydro-1,5-naphthyridin-3-yl)methyl)acetamide]
< 1000	< 1000	< 1000		[2H]C([2H])([2H])C(=O)NCC1Cc2ncccc2N(c2ccc(C(F)(F)F)cc2)C1 (single isomer, unassigned) [Cpd. No. 34-En2, (R)- or (S)-N-((1-(4-(trifluoromethyl)phenyl)-1,2,3,4-tetrahydro-1,5-naphthyridin-3-yl)methyl)acetamide-2,2,2-d3]
< 1000	< 1000	< 1000		CC(=O)NCC1(C)Cc2ncccc2N(c2ccc(C(F)(F)F)cc2)C1 (single isomer, unassigned) [Cpd. No. 47-En1, (R)- or (S)-N-((3-methyl-1-(4-(trifluoromethyl)phenyl)-1,2,3,4-tetrahydro-1,5-naphthyridin-3-yl)methyl)acetamide]
< 1000		< 1000	< 1000	C=CC(=O)NCC1Cc2c(OCc3cc(=O)[nH]c(=O)[nH]3)cccc2N(c2ccc(C(F)(F)F)cc2)C1 (stereo not drawn) [Cpd. No. 4, N-((5-((2,6-dioxo-1,2,3,6-tetrahydropyrimidin-4-yl)methoxy)-1-(4-(trifluoromethyl)phenyl)-1,2,3,4-tetrahydroquinolin-3-yl)methyl)acrylamide]
< 1000		< 1000	< 1000	C=CC(=O)NCC1Cc2c(OCc3cc[nH]c(=O)c3)cccc2N(c2ccc(C(F)(F)F)cc2)C1 (stereo not drawn) [Cpd. No. 6, N-((5-((2-oxo-1,2-dihydropyridin-4-yl)methoxy)-1-(4-(trifluoromethyl)phenyl)-1,2,3,4-tetrahydroquinolin-3-yl)methyl)acrylamide]
< 1000		< 1000	< 1000	CCC(=O)NCC1Cc2c(OCc3cc[nH]c(=O)c3)cccc2N(c2ccc(C(F)(F)F)cc2)C1 (stereo not drawn) [Cpd. No. 7, N-((5-((2-oxo-1,2-dihydropyridin-4-yl)methoxy)-1-(4-(trifluoromethyl)phenyl)-1,2,3,4-tetrahydroquinolin-3-yl)methyl)propionamide]
< 1000		< 1000	< 1000	C=CC(=O)NCC1Cc2ncccc2N(c2ccc(C(F)(F)F)cc2)C1 (stereo not drawn) [Cpd. No. 10, N-((1-(4-(trifluoromethyl)phenyl)-1,2,3,4-tetrahydro-1,5-naphthyridin-3-yl)methyl)acrylamide]
< 1000		< 1000	< 1000	C=CC(=O)NCC1Cc2c(CCN3CC(=O)NC(=O)C3)cccc2N(c2ccc(C(F)(F)F)cc2)C1 (stereo not drawn) [Cpd. No. 11, N-((5-(2-(3,5-dioxopiperazin-1-yl)ethyl)-1-(4-(trifluoromethyl)phenyl)-1,2,3,4-tetrahydroquinolin-3-yl)methyl)acrylamide]
< 1000		< 1000	< 1000	CC(=O)NCC1Cc2ncccc2N(c2ccc(C(F)(F)F)cc2)C1 (stereo not drawn) [Cpd. No. 12, N-((1-(4-(trifluoromethyl)phenyl)-1,2,3,4-tetrahydro-1,5-naphthyridin-3-yl)methyl)acetamide]
< 1000		< 1000	< 1000	C=CC(=O)NCC1Cc2c(OCc3cc(=O)[nH]c(=O)n3C)cccc2N(c2ccc(C(F)(F)F)cc2)C1 (stereo not drawn) [Cpd. No. 14, N-((5-((3-methyl-2,6-dioxo-1,2,3,6-tetrahydropyrimidin-4-yl)methoxy)-1-(4-(trifluoromethyl)phenyl)-1,2,3,4-tetrahydroquinolin-3-yl)methyl)acrylamide]
< 1000		< 1000	< 1000	CC(=O)NCC1Cc2nc(C)ccc2N(c2ccc(C(F)(F)F)cc2)C1 (stereo not drawn) [Cpd. No. 26, N-((6-methyl-1-(4-(trifluoromethyl)phenyl)-1,2,3,4-tetrahydro-1,5-naphthyridin-3-yl)methyl)acetamide]
